Measured values as given in patent US20250188078A1, “SMALL MOLECULE INHIBITORS OF THE CRL4 UBIQUITIN LIGASE” (Cornell University, priority 2022, published 2025).
pEC50: −log10 of the molar value.

How the values were obtained:
MCF7 breast cancer cells = test: Cell killing in MCF7 cells (CellTiter Glo); type: cell-based; settings: Homo sapiens, MCF7, 192 h; Table 3, 0 to 20 μM compound, 8 days treatment
Procedure: CUL4A^high MDA-MB-468, CUL4^low (T47D), and MCF7 breast cancer cells were seeded in 96 well plates separately. Cells were treated with DMSO, or from 0 to 20 μM compound respectively. Replace with fresh medium and compounds every 48 hours. After 8 days treatment, cell viability was examined by CellTiter Glo kit (Promega #7570). First, transfer the appropriate volume (10 ml for Cat. #G7570) of CellTiter-Glo® Buffer into the amber bottle containing CellTiter-Glo® Substrate to reconstitute the lyophilized enzyme/substrate mixture. This forms the CellTiter-Glo® Reagent. Second, add CellTiter-Glo® Reagent in an equal volume (100 μl per well for 96-well plates) to all wells. Mix contents for 2 minutes on an orbital shaker to induce cell lysis. Incubate at room temperature for 15 minutes to stabilize luminescent signal. Then record luminescence. EC50 concentration was calculated by Prism 8 XY analysis nonlinear regression (curve fit-Log(inhibitor) vs response).

[1] = tested on: CUL4A^high xenograft and PDX tumors; test: CUL4A^high xenograft and PDX tumor growth; type: in vivo, mouse; settings: 50 mg/kg intraperitoneal; breast cancer xenograft and colorectal cancer PDX models, FIGS. 8A-8C
Procedure: Measurements were performed according to the following procedure. Mouse body weights were monitored using a scale. Tumors were assessed and volumes measured with fine calipers twice a week. The tumor volumes were calculated with the formula: Volume=(Length×Width^2)/2. Compound PA99 was administered via intraperitoneal doses in an amount of 50 mg/kg every X days, where X is the number of days shown in FIGS. 8A-8C.

`CN(c1ccc(-c2nc(C(=O)O)cc3c2[nH]c2cccc(F)c23)cc1)S(=O)(=O)c1ccccc1` [PA99, 5-fluoro-1-(4-(N-methylphenylsulfonamido)phenyl)-9H-pyrido[3,4-b]indole-3-carboxylic acid] was tested. Which pEC50 (MCF7 breast cancer cells) did it give?
Its pEC50 is 4.71.

What about the Tumor growth [1] of the same molecule?
Its Tumor growth is “suppression”.
